Measurements from US20230278972A1, “SUBSTITUTED HALOALKYL SULFONANILIDE HERBICIDES” (FMC Corporation, priority 2020, published 2023).

What was measured:
Type in all cases: in vivo
[1] = system: goosegrass (Eleusine indica); assay: Test A1 postemergence, goosegrass; settings: Postemergence
Summary of the method: (§1)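 Plants were grown in a loam soil/sand blend, with test chemicals formulated in a non-phytotoxic solvent mixture containing surfactant. Preemergence treatment (corn) was a directed soil spray at planting. Postemergence treatment was applied to plants 2 to 10 cm tall at the one- to two-leaf stage.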

[2] = system: wheat (Triticum aestivum); assay: Test A1 postemergence, wheat; settings: Postemergence
Summary of the method: as §1

[3] = system: barnyardgrass (Echinochloa crus-galli); assay: Test B1 flooded paddy test, barnyardgrass; settings: 250 g ai/ha, Flood, applied to paddy water, 2-leaf stage, visually evaluated after 10 to 14 days
Excerpt: (§2) A dash (-) response means no test result.

[4] = system: Pigweed, Palmer (palmer amaranth, palmer pigweed, Amaranthus palmeri); assay: Test A1 preemergence, Pigweed, Palmer
Summary of the method: (§3)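 Pre: seeds in loam/sand blend, directed soil spray. Post: potted plants, same soil, 2–10 cm, 1–2 leaf stage. Chemicals in non-phytotoxic solvent + surfactant for both.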

[5] = system: ragweed (common ragweed, Ambrosia artemisiifolia); assay: Test A1 preemergence, ragweed
Summary of the method: as §3

soybean (Glycine max) [6] = assay: Test A1 preemergence, soybean
Summary of the method: as §3

[7] = system: Foxtail, Giant (giant foxtail, Setaria faberi); assay: Test A1 postemergence, Foxtail, Giant; settings: Postemergence
Summary of the method: as §1

kochia (Bassia scoparia) [8] = assay: Test A1 postemergence, kochia; settings: Postemergence
Summary of the method: as §1

[9] = system: Foxtail, Giant (giant foxtail, Setaria faberi); assay: Test A1 preemergence, Foxtail, Giant
Summary of the method: as §3

[10] = system: wheat (Triticum aestivum); assay: Test A1 preemergence, wheat
Summary of the method: as §3

[11] = system: Ryegrass, Italian (Italian ryegrass, Lolium multiflorum); assay: Test A1 preemergence, Ryegrass, Italian
Summary of the method: as §3

[12] = system: ducksalad (Heteranthera limosa); assay: Test B1 flooded paddy test, ducksalad; settings: 250 g ai/ha, Flood, applied to paddy water, 2-leaf stage, visually evaluated after 10 to 14 days
Excerpt: as §2

[13] = system: blackgrass (Alopecurus myosuroides); assay: Test A1 preemergence, blackgrass
Summary of the method: as §3

[14] = system: ragweed (common ragweed, Ambrosia artemisiifolia); assay: Test A1 postemergence, ragweed; settings: Postemergence
Summary of the method: (§4)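 Postemergence species (ragweed, Palmer pigweed, wild oat) were sprayed at one- to two-leaf stage, 2 to 10 cm tall. Corn was treated preemergence by directed soil spray. Both used a loam soil/sand blend and compounds in a non-phytotoxic solvent mixture with surfactant.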

[15] = system: Oat, Wild (wild oat, Avena fatua); assay: Test A1 postemergence, Oat, Wild; settings: Postemergence
Summary of the method: as §4

[16] = system: Oat, Wild (wild oat, Avena fatua); assay: Test A1 preemergence, Oat, Wild
Summary of the method: as §3

[17] = system: blackgrass (Alopecurus myosuroides); assay: Test A1 postemergence, blackgrass; settings: Postemergence, 0 to 100 scale (0 no effect, 100 complete control)
Summary of the method: as §1

corn (Zea mays) [18] = assay: Test A1 preemergence, corn
Summary of the method: as §4

kochia (Bassia scoparia) [19] = assay: Test A1 preemergence, kochia
Summary of the method: as §3

rice (Oryza sativa) = assay: Test B1 flooded paddy test, rice; settings: 250 g ai/ha, Flood, applied to paddy water, 2-leaf stage, visually evaluated after 10 to 14 days
Excerpt: as §2

[20] = system: horseweed (Erigeron canadensis); assay: Test A1 postemergence, horseweed; settings: Postemergence
Summary of the method: as §1

[21] = system: Pigweed, Palmer (palmer amaranth, palmer pigweed, Amaranthus palmeri); assay: Test A1 postemergence, Pigweed, Palmer; settings: Postemergence
Summary of the method: as §4

soybean (Glycine max) [22] = assay: Test A1 postemergence, soybean; settings: Postemergence
Summary of the method: as §1

corn (Zea mays) [23] = assay: Test A1 postemergence, corn; settings: Postemergence
Summary of the method: as §3

[24] = system: Ryegrass, Italian (Italian ryegrass, Lolium multiflorum); assay: Test A1 postemergence, Ryegrass, Italian; settings: Postemergence
Summary of the method: as §1

[25] = system: galium (catchweed bedstraw, Galium aparine); assay: Test A1 postemergence, galium; settings: Postemergence
Summary of the method: as §1

[26] = system: goosegrass (Eleusine indica); assay: Test A1 preemergence, goosegrass
Summary of the method: as §3

[27] = 31 g ai/ha, 0 to 100 scale (0 no effect, 100 complete control), 10 days
[28] = 31 g ai/ha, 0 to 100 scale (0 no effect, 100 complete control)
[29] = 125 g ai/ha, 0 to 100 scale, 0 no effect, 100 complete control

Cc1c(NS(=O)(=O)C(F)(F)F)cc(C(=O)N2CCC(F)CC2)c(C)c1C [Compound 358]
0: Plant response rating, Goosegrass [1, 27] | Plant response rating, Wheat [2, 27] | Plant response rating, Wheat ([2]; 125 g ai/ha, 0 to 100 scale) | Plant response rating, Foxtail, Giant [7, 27] | Plant response rating, Kochia (kochia (Bassia scoparia) [8]; [27]) | Plant response rating, Wheat [10, 28] | Plant response rating, Ryegrass, Italian [11, 28] | Plant response rating, Ducksalad (0 to 100 scale, 0 is no effect, 100 is complete control) [12] | Plant response rating, Blackgrass [13, 28] | Plant response rating, Oat, Wild [15, 27] | Plant response rating, Oat, Wild ([15]; 125 g ai/ha, 0 to 100 scale) | Plant response rating, Oat, Wild [16, 28] | Plant response rating, Blackgrass ([17]; 31 g ai/ha, 10 days) | Plant response rating, Blackgrass ([17]; 125 g ai/ha) | Plant response rating, Corn (corn (Zea mays) [18]; [28]) | Plant response rating, Pigweed, Palmer [21, 27] | Plant response rating, Corn (corn (Zea mays) [23]; [27]) | Plant response rating, Corn (corn (Zea mays) [23]; 125 g ai/ha, 0 to 100 scale)
20: Plant response rating, Kochia (kochia (Bassia scoparia) [19]; [28]) | Plant response rating, Ryegrass, Italian [24, 27] | Plant response rating, Ryegrass, Italian ([24]; 125 g ai/ha, 0 to 100 scale)
10: Plant response rating, Blackgrass [13, 29] | Plant response rating, Oat, Wild [16, 29] | Plant response rating, Rice (0 to 100 scale, 0 is no effect, 100 is complete control) (rice (Oryza sativa))
80: Plant response rating, Goosegrass ([1]; 125 g ai/ha, 0 to 100 scale) | Plant response rating, Ragweed [5, 29] | Plant response rating, Foxtail, Giant [9, 28] | Plant response rating, Ragweed [14, 27] | Plant response rating, Ragweed ([14]; 125 g ai/ha, 0 to 100 scale)
90: Plant response rating, Pigweed, Palmer [4, 28] | Plant response rating, Pigweed, Palmer [4, 29]
50: Plant response rating, Barnyardgrass (0 to 100 scale, 0 is no effect, 100 is complete control) [3] | Plant response rating, Soybean (soybean (Glycine max) [6]; [28]) | Plant response rating, Corn (corn (Zea mays) [18]; [29]) | Plant response rating, Soybean (soybean (Glycine max) [22]; [27])
60: Plant response rating, Horseweed [20, 27]
30: Plant response rating, Wheat [10, 29] | Plant response rating, Ryegrass, Italian [11, 29] | Plant response rating, Kochia (kochia (Bassia scoparia) [19]; [29]) | Plant response rating, Goosegrass [26, 28]
40: Plant response rating, Ragweed [5, 28] | Plant response rating, Foxtail, Giant ([7]; 125 g ai/ha, 0 to 100 scale) | Plant response rating, Pigweed, Palmer ([21]; 125 g ai/ha, 0 to 100 scale)
70: Plant response rating, Soybean (soybean (Glycine max) [6]; [29]) | Plant response rating, Kochia (kochia (Bassia scoparia) [8]; 125 g ai/ha, 0 to 100 scale) | Plant response rating, Horseweed ([20]; 125 g ai/ha, 0 to 100 scale) | Plant response rating, Soybean (soybean (Glycine max) [22]; 125 g ai/ha, 0 to 100 scale) | Plant response rating, Galium [25, 27]
100: Plant response rating, Foxtail, Giant [9, 29] | Plant response rating, Galium ([25]; 125 g ai/ha, 0 to 100 scale) | Plant response rating, Goosegrass [26, 29]
